Laboratory results: US12180523B2, “Southern green stink bug pheromone synthesis enzymes and uses thereof” (VIRGINIA TECH INTELLECTUAL PROPERTIES, INC., priority 2018, dated 2024)
One block for each molecule: values may come before it.

How the values were obtained:
[1] = system: crude protein extract from whole male and female bugs; test: Enzyme activity in crude protein extract from whole bugs; type: biochemical, N. viridula; settings: supernatant of homogenized male and female bugs incubated with (E,E)-FPP
Protocol: Enzyme Activity in Crude Protein Assay. Enzyme activity was measured in crude protein extract from whole male and female bugs to determine possible products from enzymes that accept (E,E)-FPP. The supernatant from homogenized bugs was incubated with the substrate and analyzed products extracted by hexane using GC-MS. […] Also, several sesquiterpenes were found in low abundance that were not found in assays of partially purified NvTPS.

[2] = target: T1, recombinant NvIDS1 (NvTPS) protein (Nezara viridula, UniProt A0A386JV86); test: TPS activity assay of purified recombinant NvTPS, products by GC-MS; type: biochemical, N. viridula; settings: 50 μM allylic substrate, 30° C., 1 h
T1 construct: Full-length NvTPS (NvIDS1) cDNA was cloned into the pEXP5-NT/TOPO (Invitrogen) expression vector; His tag (N-terminal histidine fusion tag from pEXP5-NT/TOPO) (N); made in house; host or cells: E. coli BL21(DE3)pLysS
T1 sequence (A0A386JV86 1-378): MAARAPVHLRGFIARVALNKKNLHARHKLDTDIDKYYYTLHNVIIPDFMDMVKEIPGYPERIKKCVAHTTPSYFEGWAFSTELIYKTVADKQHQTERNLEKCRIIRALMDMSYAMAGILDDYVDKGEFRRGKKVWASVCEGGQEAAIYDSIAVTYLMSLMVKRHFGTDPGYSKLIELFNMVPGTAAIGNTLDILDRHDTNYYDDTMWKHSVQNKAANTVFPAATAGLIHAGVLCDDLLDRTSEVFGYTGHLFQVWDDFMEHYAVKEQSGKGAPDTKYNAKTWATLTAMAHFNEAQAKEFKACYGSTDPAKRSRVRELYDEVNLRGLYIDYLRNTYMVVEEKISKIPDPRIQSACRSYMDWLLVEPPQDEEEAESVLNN
Protocol: Heterologous Expression of Recombinant NvTPS.
TPS activity of purified, recombinant NvTPS protein was determined in assay buffer (see above) with 1 mM DTT and 50 μM allylic substrate [(E,E)-, (Z,E)- or (Z,Z)-FPP] in a total volume of 100 μl and with a100 μl hexane overlay. Upon incubation at 30° C. for 1 h, assays were stopped on ice and compounds extracted by mixing using a vortex at maximum speed for 15 s. Phases were separated by centrifuging at 4000×g for 10 min and the hexane phase was removed and dried over MgSO4. One μL of the hexane extract was analyzed by GC-MS.
Gas Chromatography-Mass Spectrometry Analysis and Determination of Absolute Configuration of NvTPS Products. GC-MS analysis of hexane extracts from assays with crude protein lysates or NvTPS recombinant protein was performed using split injection (5:1 ratio) at an injection temperature of 240° C. Compounds were separated on a GC-2010 gas chromatograph (Shimadzu, Kyoto, Japan) with a 30 m×0.25 mm i.d.×0.25 μm film Zebron ZB-XLB column (Phenomenex, Torrance, CA) coupled to a QP2010S mass spectrometer (Shimadzu). Separation steps were as follows: initial 2 min hold at 40° C., followed by a 5° C./min ramp to 220° C., then a 70° C./min ramp to 240° C. followed by a 2 min hold time at 240° C. Mass spectrometry was performed with a 240° C. ion source temperature, 280° C. interface temperature, electron ionization (El) potential of 70 eV, and scan range of 50 to 400 amu. Helium was used as a carrier gas at 1.9 ml/min.

[3] = system: crude protein extracts from tissue associated with the ventral sternites of N. viridula; test: Terpene synthase activity in crude protein extracts of abdominal cuticle tissue; type: biochemical; settings: 50 μM (E,E)-FPP, 12 h, 30° C.
Protocol: Crude Protein Extracts of N. viridula. Abdominal cuticles from one mature (14-15 days post molt) adult male and female N. viridula were used for crude protein assays. Insects were fixed with hexane vapor in a screw top jar and dissected in phosphate buffered saline (PBS) (137 mM NaCl, 8.1 mM Na2HPO4, 1.5 mM NaH2PO4, 2.7 mM KCl, pH 7.2). Head, thorax and abdominal soft tissues were removed except for epithelial cells lining the cuticle. Abdominal cuticles were then frozen in liquid nitrogen, pulverized with a mortar and pestle, and suspended in assay buffer (25 mM HEPES, 5 mM MgCl2, 10% glycerol, 1 mM DTT, pH 7). Protein concentrations were determined with a Bradford Assay (Bio-Rad, Hercules, CA) according to the manufacturer's protocol resulting in a protein concentration of 1.2 μg/μl and 0.8 μg/μl for female and male tissue, respectively.
TPS Activity Assay. To determine terpene synthase activity in crude protein extracts of male and female abdominal cuticle tissue, 50 μM (E,E)-FPP was added to protein extracts in assay buffer (see above) containing 50 µg protein at a final volume of 200 μl and with a 200 μl hexane overlay to collect volatiles. Following incubation for 12 h at 30° C., enzyme products were extracted by mixing for 15 s using a vortex and phases were separated by centrifuging at 4000×g for 10 min. One μl of the hexane extract was analyzed by GC-MS. […]

NvTPS = target: T2, NvTPS (Nezara viridula, UniProt A0A386JV86); test: Kinetic analysis of NvTPS with [1-3H]-(E,E)-FPP; type: biochemical, N. viridula; settings: (E,E)-FPP as the substrate
T2 construct: Full-length NvTPS (NvIDS1) cDNA was cloned into the pEXP5-NT/TOPO (Invitrogen) expression vector; His tag (N-terminal histidine fusion tag from pEXP5-NT/TOPO) (N); made in house; host or cells: E. coli BL21(DE3)pLysS
T2 sequence (A0A386JV86 1-378): T1 sequence (A0A386JV86 1-378)
Protocol: To determine the apparent Km value of NvTPS for (E,E)-FPP, […] of recombinant protein was incubated with increasing concentrations of [1-3H]-(E,E)-FPP (64 ρCi mmol-1) in a total volume of […]. Assays were incubated at 30° C. for 5 min prior to extraction of the enzyme product with 250 μl hexane. Assays were performed in triplicate. Quantification of the radioactive product was as described by Tholl et al. (2005. Plant. J. 42:757-771). The Km value was calculated by rectangular hyperbolic regression analysis using Hyperbolic Regression Analysis software (HYPER 1.01) (J. S. Easterby, University of Liverpool).

[4] = target: recombinant NvIDS2 (NvFPPS) (Nezara viridula, UniProt A0A386JVA3); settings: 50 μM IPP and 50 μM DMAPP, 30° C., 2 h, LC-MS
recombinant NvIDS2 (NvFPPS), sequence (A0A386JVA3 whole entry): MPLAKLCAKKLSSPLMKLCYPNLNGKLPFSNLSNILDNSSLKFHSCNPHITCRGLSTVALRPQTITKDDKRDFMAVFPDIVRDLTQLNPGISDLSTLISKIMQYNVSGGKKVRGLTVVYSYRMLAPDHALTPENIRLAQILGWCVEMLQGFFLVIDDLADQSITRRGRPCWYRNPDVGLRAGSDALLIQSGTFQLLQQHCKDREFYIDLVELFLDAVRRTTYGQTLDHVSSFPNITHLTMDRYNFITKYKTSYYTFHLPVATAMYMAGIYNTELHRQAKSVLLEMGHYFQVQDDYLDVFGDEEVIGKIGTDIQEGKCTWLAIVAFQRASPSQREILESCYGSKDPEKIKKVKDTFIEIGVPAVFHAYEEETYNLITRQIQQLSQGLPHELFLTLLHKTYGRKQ
Protocol: In preparation for enzyme assays, a buffer exchange to 25 mM 3-(N-morpholino)-2-hydroxypropanesulfonic acid (MOPSO, pH 7.2, 10% [v/v] glycerol, 1 mM DTT, 5 mM MgCl2) was conducted on PD-10 Desalting Columns (GE Healthcare Life Sciences, Pittsburgh, PA).
(§1) IDS Activity Assay and Analysis. […] Upon incubation at 30° C. for 2 h, IDS enzyme products were analyzed on an Agilent 1260 HPLC system (Agilent Technologies) coupled to an API 5000 triple-quadrupole mass spectrometer (AB Sciex Instruments) following the protocol described by Beran et al. 2016.

NvIDS1 (NvTPS) = NvIDS1 (NvTPS) (Nezara viridula, UniProt A0A386JV86); settings: IPP and DMAPP as substrates
Protocol: Full-length NvTPS (NvIDS1) cDNA was cloned into the pEXP5-NT/TOPO (Invitrogen) expression vector as described above and transformed into E. coli BL21(DE3)pLysS cells. Single colonies were selected at 18° C. on LB with ampicillin (100 μg/ml) and chloramphenicol (34 μg/ml). Expression cultures (200 ml of the same medium) were started from 5 ml overnight cultures and incubated at 18° C. for 4-8h. Following induction at an OD600 of 0.50 with 0.5 mM IPTG, cells were cultivated for another 48 h, then washed in 100 ml wash buffer (20 mM Tris-HCl, 50 mM KCl, pH 7), pelleted, and resuspended in 15 ml cell lysis buffer (50 mM NaH2PO4, 300 mM NaCl, 5 mM imidazole, 0.5 mM PMSF, 2 mM DTT, pH 8). Upon sonication for 2×30 s (on ice, 1 min interval, 20% amplitude, Branson Digital Sonifier), the recombinant protein was purified with Ni-NTA agarose (Qiagen) using three washes of 30 mM imidazole and elution as a 1 ml fraction with 250 mM imidazole. Buffer exchange into TPS assay buffer (25 mM HEPES, 10 mMMgCl2,10% glycerol, pH 7) was performed on PD MiniTrap G-25 desalting columns (GE Healthcare Life Sciences).
as §1

Molecule: CC(C)=CCC/C(C)=C/CC/C(C)=C/COP(=O)(O)OP(=O)(O)O [(E,E)-FPP, (E,E)-farnesyl diphosphate]
products in crude protein extract from whole bugs, GC-MS [1]: (Z)-α-bisabolene present in crude protein from males but not females
enzymatic products of NvIDS1 (TPS activity) [2]: (Z)-α-bisabolene as the main product
TPS activity in crude protein extract, products by GC-MS ([3]; extracts from mature females): only little activity
TPS activity in crude protein extract, products by GC-MS ([3]; extracts from mature males): formation of (Z)-α-bisabolene
Vmax (NvTPS): 11.83±2.14 pkat/mg
Km (NvTPS; 30° C., 5 min, triplicate, read-out: apparent Km value): 0.95 ± 0.37 µM

Molecule: CC(C)=CCC/C(C)=C/CC/C(C)=C\COP(=O)(O)OP(=O)(O)O [(Z,E)-FPP]
enzymatic products of NvIDS1 (TPS activity) [2]: No enzymatic products were detected

Molecule: CC(C)=CCC/C(C)=C\CC/C(C)=C\COP(=O)(O)OP(=O)(O)O [(Z,Z)-FPP]
enzymatic products of NvIDS1 (TPS activity) [2]: No enzymatic products were detected

IDS product of NvIDS2 [4]: (E,E)-FPP as the sole product
IDS activity of NvIDS1 (NvIDS1 (NvTPS)): no activity was observed
Molecule: isopentenyl diphosphate [IPP]
